Assay results reported in patent US20220313873A1, “COLORED BIOLOGIC WOUND TREATMENT PROVIDING HEALING PROGRESS MONITORING” (KERECIS HF, priority 2021, published 2022).

How the values were obtained:
[1] = tested on: cells; assay: Preliminary cytotoxicity tests; conditions: preliminary tests by the inventors
[2] = Stability of coloring agents in decellularization (Decell) solution; format: physicochemical; conditions: 0.5 mL of 1% w/v color solution in 50 mL Decell solution
Experimental: A first set of experiments were conducted to determine the stability of various coloring agents within a decellularization solution (termed herein as “Decell solution”) used in the processing/manufacturing of Kerecis™ fish-skin-derived cellular scaffold products, which is made from the minimally processed skin of wild-caught Atlantic cod, as described in U.S. Pat. No. 8,613,957.
The Decell solution was prepared in accordance with EBL M222. 50 mL of the Decell solution was aliquoted into each of 7 separate plastic tubes securable with a respective lid. A first tube included only the Decell solution, acting as a control. A 0.5 mL aliquot of each of the 6 prepared color solutions was separately added to a corresponding tube containing 50 mL of Decell solution. Any reaction or visible change of the mixture was monitored over time.
The solutions in respective tubes with the respective coloring agents were monitored and documented by photographs at the start of the experiment, after 30 minutes, and after 24 hours of incubation.

Compound: CN(C)c1ccc(C(=C2C=CC(=[N+](C)C)C=C2)c2ccc(N(C)C)cc2)cc1 [GV, gentian violet]
- cytotoxicity [1]: did not cause any cytotoxicity concern

Compound: CN(C)c1ccc2nc3ccc(N(C)C)cc3[s+]c2c1.[Cl-] [Methylene Blue, methylene blue]
- color of the Decell solution ([2]; after 24 hours): had all turned white or nearly white except the Decell solution with the added Methylene Blue
- fading of color in Decell solution ([2]; first 20 minutes): notable exception
- cytotoxicity [1]: did not cause any cytotoxicity concern
